Measured values reported in patent publication US6087334A, “Anti-diabetic peptides” (Amylin Pharmaceuticals, Inc., priority 1998, dated 2000).
Where a SMILES comes first, the peptide text is derived from it. Bridges are numbered along the chain shown (N, C = ends).

Target: T1, C1a receptor (C1a-type calcitonin receptor) (Rattus norvegicus, UniProt P32214)
T1 construct: expressed in transfected cells
T1 sequence (P32214 25-479 isoform P32214-2 limits assumed): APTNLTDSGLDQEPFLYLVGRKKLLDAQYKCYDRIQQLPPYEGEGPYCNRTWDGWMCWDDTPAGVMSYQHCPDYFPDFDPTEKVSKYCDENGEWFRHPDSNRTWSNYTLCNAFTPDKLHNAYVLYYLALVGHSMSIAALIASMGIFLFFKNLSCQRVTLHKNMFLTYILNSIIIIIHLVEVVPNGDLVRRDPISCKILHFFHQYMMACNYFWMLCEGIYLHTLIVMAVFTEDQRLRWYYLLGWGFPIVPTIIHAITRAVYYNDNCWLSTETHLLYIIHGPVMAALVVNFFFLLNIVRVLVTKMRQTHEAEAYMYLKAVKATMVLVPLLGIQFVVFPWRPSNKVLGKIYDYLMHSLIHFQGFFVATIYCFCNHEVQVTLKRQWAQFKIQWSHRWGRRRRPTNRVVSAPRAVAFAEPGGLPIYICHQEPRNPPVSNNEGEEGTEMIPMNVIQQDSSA
Assay: C1a/293 competitive binding, displacement of [125I]-human calcitonin (Example C)
Settings: HEK293 plasma membranes (C1a/293), [125I]-human calcitonin 20 pM
Description: Peptide compounds of the present invention may be evaluated for binding to the C1a receptor using the procedures described in Example C. The C1a receptor is the predominant mammalian calcitonin receptor subtype. C1a pcDNA construction and transfection were carried out as previously described (Albrandt et al. 1993, FEBS Letters, 325:225-232). HEK293 cell lines showing stable expression of the rat C1a-type calcitonin receptor (C1a/293) or the human C1a-type calcitonin receptor (1154/293) were selected by G418 resistance and limiting dilution culture methods. Plasma membranes were collected from homogenized HEK293 cells and used in the receptor binding assay. Individual test peptides at concentrations spanning 6 log units starting at around 10^-6 M were examined for their ability to displace [^125 I]-human calcitonin from the plasma membrane preparation using a 96-well microtiter plate format and scintillation counting with a Wallac LKB Beta plate counter. Competitive binding curves were constructed. Non-specific binding was measured in the presence of 100 nM calcitonin. Peptide potencies (IC50 's for competitive binding) were calculated by non-linear regression using Prism™ (version 2.01, GraphPAD Software, San Diego, Calif.).
C1a/293 Competitive Binding Studies:
Compounds were evaluated for competition in binding to the C1a receptor as follows:
Reference peptides used in these studies were purchased from Bachem (Torrance, Calif.). All other chemicals were of the highest commercial grade. [^35 S]-GTPγS was purchased from NEN Life Science Products, Inc., Pittsburgh, Pa. [^125 I]-human calcitonin was purchased from Amersham Pharmacia Biotech, Inc., Piscataway, N.J.
Methods for C1a pcDNA construction and transfection have been previously described (Albrandt, et al. 1993). HEK293 cell lines stably expressing the rat C1a-type calcitonin receptor (C1a/293) or the human C1a-type calcitonin receptor (1154/293) were selected by G418 resistance and limiting dilution culture methods.
Confluent cells were detached from tissue culture flasks by incubation with 5 mM EDTA in PBS. Cells were homogenized in ice-cold 20 mM HEPES, pH 7.4 with a Polytron homogenizer. Plasma membranes were collected using three cycles of washing in fresh buffer followed by centrifugation for 15 minutes at 48,000×g. The final membrane pellet was resuspended in 20 mM HEPES buffer containing 0.2 mM phenylmethylsulfonyl fluoride (PMSF) and stored at -70° C.
Assay buffer contained 5 μg/mL bestatin, 1 μg/mL phosphoramidon, 1 mg/mL bovine serum albumin (fraction V), 1 mg/mL bacitracin, 1 mM MgCl2, and 20 mM HEPES, pH 7.4. Membranes (2-5 μg membrane protein/well), [^125 I]-human calcitonin (20 pM), and peptides were combined in 200 μL buffer in 96-well microtiter plates. After a 60 minute incubation at room temperature, well contents were harvested onto polyethyleneimine-treated GF/B glass fiber pads using a Tomtec Mach II plate harvestor (Hamden, Conn.). Dried pads were combined with scintillant and counted on a Wallac LKB Beta Plate scintillation counter (Gaithersburg, Md.). For competitive binding curves, samples were run in duplicate over a 6 log concentration range starting at 10^-6 or 10^-7 M. Non-specific binding was measured in the presence of 100 nM human calcitonin.

SMILES	IC50 [nM]
CC(C)C[C@H](NC(=O)[C@H](CCCNC(=N)N)NC(=O)[C@H](C)NC(=O)[C@@H](NC(=O)[C@H](C)NC(=O)[C@@H]1CSSC[C@H](NC(=O)[C@@H](N)CCCCN)C(=O)N[C@@H](CC(N)=O)C(=O)N[C@@H]([C@@H](C)O)C(=O)N[C@@H](C)C(=O)N[C@@H]([C@@H](C)O)C(=O)N1)[C@@H](C)O)C(=O)N[C@@H](C)C(=O)N[C@@H](C)C(=O)N[C@@H](Cc1ccccc1)C(=O)N[C@@H](CC(C)C)C(=O)N[C@@H](C)C(=O)N[C@@H](CCCNC(=N)N)C(=O)N[C@@H](CO)C(=O)N[C@@H](CO)C(=O)NCC(=O)N[C@@H](Cc1ccc(O)cc1)C(N)=O [Example 1] (H-KCNTATCATARLAAFLARSSGY-NH2; disulfide 2-7)	0.093
CC(C)C[C@H](NC(=O)[C@H](CCCNC(=N)N)NC(=O)[C@H](C)NC(=O)[C@@H](NC(=O)[C@H](C)NC(=O)[C@@H]1CSSC[C@H](N)C(=O)N[C@@H](CC(N)=O)C(=O)N[C@@H]([C@@H](C)O)C(=O)N[C@@H](C)C(=O)N[C@@H]([C@@H](C)O)C(=O)N1)[C@@H](C)O)C(=O)N[C@@H](C)C(=O)N[C@@H](C)C(=O)N[C@@H](Cc1ccccc1)C(=O)N[C@@H](CC(C)C)C(=O)N[C@@H](C)C(=O)N[C@@H](CCCNC(=N)N)C(=O)N[C@@H](CO)C(N)=O [Example 3] (H-CNTATCATARLAAFLARS-NH2; disulfide 1-6)	0.19
CC(C)C[C@H](NC(=O)[C@H](CCCNC(=N)N)NC(=O)[C@H](C)NC(=O)[C@@H](NC(=O)[C@H](C)NC(=O)[C@@H]1CSSC[C@H](NC(=O)[C@@H](N)CCCCN)C(=O)N[C@@H](CC(N)=O)C(=O)N[C@@H]([C@@H](C)O)C(=O)N[C@@H](C)C(=O)N[C@@H]([C@@H](C)O)C(=O)N1)[C@@H](C)O)C(=O)N[C@@H](C)C(=O)N[C@@H](CC(N)=O)C(=O)N[C@@H](Cc1ccccc1)C(=O)N[C@@H](CC(C)C)C(=O)N[C@H](C(=O)N[C@@H](CCCNC(=N)N)C(=O)N[C@@H](CO)C(=O)N[C@@H](CO)C(=O)NCC(=O)N[C@@H](Cc1ccc(O)cc1)C(N)=O)C(C)C [Example 5] (H-KCNTATCATARLANFLVRSSGY-NH2; disulfide 2-7)	1.4
CC(C)C[C@H](NC(=O)[C@H](CCCNC(=N)N)NC(=O)[C@H](C)NC(=O)[C@@H](NC(=O)[C@H](C)NC(=O)[C@H](C)NC(=O)[C@@H](NC(=O)[C@H](CO)NC(=O)[C@@H](N)CC(C)C)[C@@H](C)O)[C@@H](C)O)C(=O)N[C@@H](C)C(=O)N[C@@H](C)C(=O)N[C@@H](Cc1ccccc1)C(=O)N[C@@H](CC(C)C)C(=O)N[C@@H](C)C(=O)N[C@@H](CCCNC(=N)N)C(=O)N[C@@H](CO)C(N)=O [Example 6] (H-LSTAATARLAAFLARS-NH2)	1.4
